According to BindingDB's records for doi:10.1016/j.bmc.2019.115161 (Iwate University, 2019):

Assays:
[1] = Inhibition of trypsin-like activity of beta2 subunit of 20S proteasome in human erythrocytes using Boc-LRR-MCA as substrate preincubated with enzyme for 10 mins followed by substrate addition and measured after 3 hrs by fluorescence spectrophotometric analysis
[2] = Inhibition of caspase-like activity of beta1 subunit of 20S proteasome in human erythrocytes using Z-LLE-MCA as substrate preincubated with enzyme for 10 mins followed by substrate addition and measured after 3 hrs by fluorescence spectrophotometeric analysis

SMILES | IC50 [1] [µM] | IC50 [2] [µM]
C=C1CC[C@H]2C(C)(C)[C@H](O)CC[C@]2(C)[C@H]1C[C@]12O[C@H]1C(=O)C(COC(=O)C[C@H](C)O)=CC2=O | 22.5 | 3.9
C=C1CC[C@H]2C(C)(C)[C@H](O)CC[C@]2(C)[C@H]1C[C@]12O[C@H]1C(=O)C(CO)=CC2=O | 76.1 | 17.8
C=C1CC[C@H]2C(C)(C)[C@H](O)CC[C@]2(C)[C@H]1C[C@]12O[C@H]1[C@H](O)C(COC(=O)[C@H](O)[C@H](C)O)=CC2=O | > 100 | 87.3
C=C1CC[C@H]2C(C)(C)[C@H](O)CC[C@]2(C)[C@H]1C[C@]12O[C@H]1[C@H](O)C(CO)=CC2=O | > 100 | > 100

Continued, values first:

IC50 [1] [µM] | IC50 [2] [µM] | SMILES
27.9 | 5.2 | C=C1CC[C@H]2C(C)(C)[C@H](O)CC[C@]2(C)[C@H]1C[C@]12O[C@H]1C(=O)C(COC(=O)[C@H](O)[C@H](C)O)=CC2=O
> 100 | 30.1 | C=C1CC[C@H]2C(C)(C)[C@H](O)CC[C@]2(C)[C@H]1C[C@]12O[C@H]1[C@H](O)C(COC(=O)C[C@H](C)O)=CC2=O
